The values below come from patent US20240226228A1, “ANTIMICROBIAL PEPTOID HAVING IMPROVED SELECTIVITY AND ANTIMICROBIAL COMPOSITION COMPRISING SAME” (priority 2021, published 2024).

Converted amounts (≈) assume the structure as drawn. Like-named read-outs stand apart in the source and are kept apart here. Where a SMILES comes first, the peptide text is derived from it. [ ]: non-standard residue; d: D form. Gly(N(CH2)2(3-indolyl)) = O=C(O)CNCCc1c[nH]c2ccccc12; Gly(N-CH2CH2-imidazol-4-yl) = O=C(O)CNCCc1c[nH]cn1; Nspe = C[C@H](NCC(=O)O)c1ccccc1; Nlys = NCCCCNCC(=O)O

Data set [1] concerns E. coli ATCC25922. Summed up:
(§1)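 Cation-adjusted MHB2 cultures (18 h, subcultured 4 h) adjusted to 2×10^5–5×10^5 CFU/mL in medium with 0.02% BSA and 0.001% acetic acid.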

For data set [2], the system named is S. aureus ATCC 25923. Summed up: as §1
Data set [3] concerns red blood cells. Kind of data set: Hemolysis assay. The data set is classed as cell-based, Sprague-Dawley mouse. Summed up:
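Peptoid is mixed with 10% (v/v) PBS-washed erythrocytes (male Sprague-Dawley […], 13 weeks) and held 1 h at 37 °C. Hemolysis is calculated from 540 nm absorbance of the supernatant, with PBS as 0% and Triton X-100 as 100%.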

Where [4] appears, read: Tables 11-13, 24 hours at 37° C., maximum concentration 25 μM.
Where [5] appears, read: Table 18, TFA salt vs counter ion-substituted (HCl, AcOH) peptoids.

Turning to `C[C@@H](c1ccccc1)N(CC(N)=O)C(=O)CN(CCCCN)C(=O)CN(CCCCN)C(=O)CN(C(=O)CN(C(=O)CN(CCc1c[nH]cn1)C(=O)CN(C(=O)CN(C(=O)CN(CCCCN)C(=O)CN(CCc1c[nH]c2ccccc12)C(=O)CN(CCc1c[nH]c2ccccc12)C(=O)CNCCCCN)[C@@H](C)c1ccccc1)[C@@H](C)c1ccccc1)[C@@H](C)c1ccccc1)[C@@H](C)c1ccccc1` [Peptoid 74] (H-[Nlys][Gly(N(CH2)2(3-indolyl))][Gly(N(CH2)2(3-indolyl))][Nlys][Nspe][Nspe][Gly(N-CH2CH2-imidazol-4-yl)][Nspe][Nspe][Nlys][Nlys][Nspe]-NH2), the “MIC E. coli ATCC25922” value in data set [1] (ATCC25922) came out at 6.3 µM (≈ 11.9 µg/mL). Further, the “MIC S. aureus ATCC 25923” value in data set [2] (ATCC 25923) stood at 3.1 µM (≈ 5.85 µg/mL). In data set [3], the HD10 was 81.7, the HD50 was greater than 100.0 and the “Hmax (100 μM)” value stood at 14.2 ± 0.3.
For orientation: HC50 means the concentration giving 50% haemolysis. Turning to `C[C@@H](c1ccccc1)N(CC(N)=O)C(=O)CN(C(=O)CN(CCCCN)C(=O)CN(CCc1c[nH]c2ccccc12)C(=O)CN(CCc1c[nH]c2ccccc12)C(=O)CN(CCCCN)C(=O)CN(C(=O)CN(C(=O)CN(CCCCN)C(=O)CN(C(=O)CN(C(=O)CNCCCCN)[C@@H](C)c1ccccc1)[C@@H](C)c1ccccc1)[C@@H](C)c1ccccc1)[C@@H](C)c1ccccc1)[C@@H](C)c1ccccc1` [Peptoid 12], the “MIC E. coli ATCC25922” value in data set [1] (setting [4]) was 6.3 µM (≈ 12 µg/mL). Further, the “MIC S. aureus ATCC 25923” value in data set [2] (setting [4]) was 1.6 µM (≈ 3.04 µg/mL). In addition, in data set [3], the HC10 worked out at 29.1 µM, the HC50 was 65.2 µM and the “Hmax (100 μM)” value is 87.4 ± 2.4%.
The matching figures for `C[C@@H](c1ccccc1)N(CC(=O)N(CCc1c[nH]c2ccccc12)CC(N)=O)C(=O)CN(CCCCN)C(=O)CN(C(=O)CN(C(=O)CN(CCCCN)C(=O)CN(C(=O)CN(C(=O)CN(CCCCN)C(=O)CN(C(=O)CN(C(=O)CNCCCCN)[C@@H](C)c1ccccc1)[C@@H](C)c1ccccc1)[C@@H](C)c1ccccc1)[C@@H](C)c1ccccc1)[C@@H](C)c1ccccc1)[C@@H](C)c1ccccc1` [Peptoid 7] (H-[Nlys][Nspe][Nspe][Nlys][Nspe][Nspe][Nlys][Nspe][Nspe][Nlys][Nspe][Gly(N(CH2)2(3-indolyl))]-NH2): 6.3 µM (≈ 11.7 µg/mL), 3.1 µM (≈ 5.76 µg/mL), 7.8 µM, 23.8 µM and 94.1 ± 4.3%.
The matching figures for `C[C@@H](c1ccccc1)N(CC(N)=O)C(=O)CN(CCCCN)C(=O)CN(CCCCN)C(=O)CN(C(=O)CN(C(=O)CN(CCCCN)C(=O)CN(C(=O)CN(C(=O)CN(CCCCN)C(=O)CN(Cc1ccccc1)C(=O)CN(Cc1ccccc1)C(=O)CNCCCCN)[C@@H](C)c1ccccc1)[C@@H](C)c1ccccc1)[C@@H](C)c1ccccc1)[C@@H](C)c1ccccc1` [Peptoid 47]: 25 µM (≈ 44 µg/mL), 12.5 µM (≈ 22 µg/mL), >100/>100 μM, >100/>100 μM and 4.8 ± 0.2%.
Turning to `C[C@@H](c1ccccc1)N(CC(N)=O)C(=O)CN(CCCCN)C(=O)CN(CCCCN)C(=O)CN(C(=O)CN(C(=O)CN(CCCCN)C(=O)CN(C(=O)CN(C(=O)CN(CCc1c[nH]cn1)C(=O)CN(CCc1c[nH]c2ccccc12)C(=O)CN(CCc1c[nH]c2ccccc12)C(=O)CNCCCCN)[C@@H](C)c1ccccc1)[C@@H](C)c1ccccc1)[C@@H](C)c1ccccc1)[C@@H](C)c1ccccc1` [Peptoid 73] (H-[Nlys][Gly(N(CH2)2(3-indolyl))][Gly(N(CH2)2(3-indolyl))][Gly(N-CH2CH2-imidazol-4-yl)][Nspe][Nspe][Nlys][Nspe][Nspe][Nlys][Nlys][Nspe]-NH2), the “MIC E. coli ATCC25922” value in data set [1] (ATCC25922) stood at 6.3 µM (≈ 11.9 µg/mL). For the same molecule, in data set [2] (ATCC 25923), the “MIC S. aureus ATCC 25923” value turned out to be 3.1 µM (≈ 5.85 µg/mL). In addition, in data set [3], the HD10 was >100.0/>100.0, the HD50 is >100.0/>100.0 and the “Hmax (100 μM)” value is on record as 10.0 ± 0.3.
`C[C@@H](c1ccccc1)N(CC(N)=O)C(=O)CN(C(=O)CN(CCCCN)C(=O)CN(C(=O)CN(C(=O)CN(CCCCN)C(=O)CN(CCc1c[nH]c2ccccc12)C(=O)CN(CCCCN)C(=O)CN(CCCCN)C(=O)CN(C(=O)CN(C(=O)CNCCCCN)[C@@H](C)c1ccccc1)[C@@H](C)c1ccccc1)[C@@H](C)c1ccccc1)[C@@H](C)c1ccccc1)[C@@H](C)c1ccccc1` [Peptoid 26]: the “MIC E. coli ATCC25922” value in data set [1] (setting [4]) was greater than 25 µM. The “MIC S. aureus ATCC 25923” value in data set [2] (setting [4]) was found to be 6.3 µM (≈ 11.5 µg/mL). In addition, in data set [3], the HC10 is given as >100/>100 μM, the 50% haemolytic concentration (HC50) is given as >100/>100 μM and the “Hmax (100 μM)” value worked out at 0.7 ± 0.1%.
As to `C[C@@H](c1ccccc1)N(CC(=O)N(CCc1c[nH]cn1)CC(=O)N(CCc1c[nH]c2ccccc12)CC(=O)N(CCc1c[nH]c2ccccc12)CC(N)=O)C(=O)CN(CCCCN)C(=O)CN(CCCCN)C(=O)CN(C(=O)CN(C(=O)CN(CCCCN)C(=O)CN(C(=O)CN(C(=O)CNCCCCN)[C@@H](C)c1ccccc1)[C@@H](C)c1ccccc1)[C@@H](C)c1ccccc1)[C@@H](C)c1ccccc1` [Peptoid 77] (H-[Nlys][Nspe][Nspe][Nlys][Nspe][Nspe][Nlys][Nlys][Nspe][Gly(N-CH2CH2-imidazol-4-yl)][Gly(N(CH2)2(3-indolyl))][Gly(N(CH2)2(3-indolyl))]-NH2), the “MIC E. coli ATCC25922” value in data set [1] (ATCC25922) was 12.5 µM (≈ 23.6 µg/mL). The “MIC S. aureus ATCC 25923” value in data set [2] (ATCC 25923) amounted to 6.3 µM (≈ 11.9 µg/mL). In data set [3], the HD10 is >100.0/>100.0, the HD50 is >100.0/>100.0 and the “Hmax (100 μM)” value is given as 3.2 ± 0.3.
For `C[C@@H](c1ccccc1)N(CC(N)=O)C(=O)CN(C(=O)CN(CCCCN)C(=O)CN(C(=O)CN(C(=O)CN(CCCCN)C(=O)CN(C(=O)CN(C(=O)CN(CCCCN)C(=O)CN(CCc1c[nH]c2ccccc12)C(=O)CN(CCc1c[nH]c2ccccc12)C(=O)CNCCCCN)[C@@H](C)c1ccccc1)[C@@H](C)c1ccccc1)[C@@H](C)c1ccccc1)[C@@H](C)c1ccccc1)[C@@H](C)c1ccccc1` [Peptoid 14-1], the “MIC E. coli ATCC25922” value in data set [1] (setting [5]) came to 3.1 µM. Moreover, the “MIC S. aureus ATCC 25923” value in data set [2] (setting [5]) was found to be 3.1 µM. In data set [3], the HC10 came out at 19.2 µM, the HC50 came out at 68.2 µM and the “Hmax (100 μM)” value is listed as 75.3 ± 5.0%.
On to `C[C@@H](c1ccccc1)N(CC(=O)N(CCCCN)CC(=O)N(CC(=O)N(CC(=O)N(CCCCN)CC(=O)N(CC(=O)N(CC(=O)N(CCCCN)CC(=O)N(CCc1c[nH]c2ccccc12)CC(=O)N(CCc1c[nH]c2ccccc12)CC(N)=O)[C@@H](C)c1ccccc1)[C@@H](C)c1ccccc1)[C@@H](C)c1ccccc1)[C@@H](C)c1ccccc1)C(=O)CN(C(=O)CNCCCCN)[C@@H](C)c1ccccc1` [Peptoid 11-1] (H-[Nlys][Nspe][Nspe][Nlys][Nspe][Nspe][Nlys][Nspe][Nspe][Nlys][Gly(N(CH2)2(3-indolyl))][Gly(N(CH2)2(3-indolyl))]-NH2), for which the “MIC E. coli ATCC25922” value in data set [1] (setting [5]) amounted to 3.1 µM. The “MIC S. aureus ATCC 25923” value in data set [2] (setting [5]) stood at 3.1 µM. Moreover, in data set [3], the HC10 is 10.1 µM, the HC50 came out at 21.5 µM and the “Hmax (100 μM)” value came out at 113.9 ± 1.7%.
